Test results reported in US9066958B2 (priority 2006, dated 2015).
Like-named read-outs stand apart in the source and are kept apart here.

Key:
[1] = Stability of solvent with storage; type: physicochemical
[2] = Stability of vitamin D in vehicle; type: physicochemical; conditions: result in words; only cells marked # are direct experimental observation
Excerpt: The liquid has minimal sensory effects i.e. it has minimal smell, taste, or texture i.e. no oily feel. The liquid is biologically natural in the context of breast-feeding, and is safe for infant consumption. The liquid per se is not subject to rancidity or oxidation over the shelf-life of the composition. […] One drop of each liquid was applied onto a nipple to determine whether it would adhere well enough so that no portion of it would drip off in a timeframe of 10 seconds. The results of these experimental observations are presented in Table 1 along with further considerations regarding the parameters desired for this invention.

| Molecule | Stability of solvent with storage [1] | Stability of solvent with storage ([1]; direct experimental observation) | Stability of vitamin D in vehicle [2] |
| --- | --- | --- | --- |
| CC(=O)Oc1c(C)c(C)c2c(c1C)CCC(C)(CCC[C@H](C)CCC[C@H](C)CCCC(C)C)O2 (stereo partly shown) [Eitamin E acetate oil] | Stable | – | – |
| CCO [Ethanol] | – | Evaporates | Solvent |
| O [Water] | Stable | – | – |
| Canola oil | Oxidizes/ | – | – |
| Medium-chain triglyceride | Stable | – | – |
| Sesame oil | Oxidizes/ | – | – |
